Experimental data published in patent US20250000785A1, “COSMETIC COMPOSITION COMPRISING CRANBERRY EXTRACT AND CRANBERRY SEED OIL” (Givaudan SA, priority 2021, published 2025).

System: TNF-α release of Normal Human Epidermal Keratinocytes (NHEKs) stressed with PMA
Experiment: TNF-α release by NHEKs stressed with PMA (ELISA quantification, normalised with MTT)
Format: cell-based
Details: dexamethasone 1 μM, 24 h pre-incubation, then PMA 1 ng/ml 24 h; vs untreated PMA-stressed NHEKs; p<0.001
Method: The effect of a cranberry extract, a cranberry seed oil and combinations of a cranberry extract and a cranberry seed oil on the anti-inflammatory activity of keratinocytes stressed with PMA was evaluated by comparing the decrease of the cytokine TNF-α release of Normal Human Epidermal Keratinocytes (NHEKs) treated with the cranberry products and stressed with PMA (Phorbol 12-myristate 13-acetate) with the TNF-α release of untreated NHEKs stressed with PMA.
The cell culture was done on primary cells isolated from fresh biopsies. NHEKs were seeded in a type I collagen pre-coated 24 wells-plate at 30 000 cells per well in triplicate. […]
A MTT assay was performed to evaluate treatments toxicity and for the normalisation of TNF-α quantification.
MTT solution (Sigma) diluted at 1 mg/mL in basal medium was added to each well and incubated for 3 hours at 37° C., 5% CO2. […] The optical density was measured at a wavelength of 560 nm.
The TNF-α quantification was realized with the Human TNF-alpha Quantikine ELISA kit (DTA00D, R&D Systems).
The samples and the standard range were incubated for 2 hours in 96-wells plate pre-coated with a monoclonal antibody specific for human TNF-α in presence of the Assay Diluent RD1F. […] The optical density was measured at 450 nm and 540 nm with a microplate reader (TECAN SPARK® 10M). […]
The quantification was carried out in duplicate. […]

Which “reduction of the release of cytokine TNF-α” value does the source give for `C[C@@H]1C[C@H]2[C@@H]3CCC4=CC(=O)C=C[C@]4(C)[C@@]3(F)[C@@H](O)C[C@]2(C)[C@@]1(O)C(=O)CO` [dexamethasone, Dexamethasone] here?
Its value is 46%.
